Assay results published in paper PMC10337980 (PLOS Genetics, 2023).
Where a chain is given by its changes, count along the chain named.

Columns and labels:
Type in all cases: cell-based
[1] = target: T1, LsRDL (Laodelphax striatellus, UniProt Q0ECT5); assay: two-electrode voltage clamp, GABA-induced current in Xenopus oocytes
T1 construct: homomeric
T1 sequence (Q0ECT5 23-487): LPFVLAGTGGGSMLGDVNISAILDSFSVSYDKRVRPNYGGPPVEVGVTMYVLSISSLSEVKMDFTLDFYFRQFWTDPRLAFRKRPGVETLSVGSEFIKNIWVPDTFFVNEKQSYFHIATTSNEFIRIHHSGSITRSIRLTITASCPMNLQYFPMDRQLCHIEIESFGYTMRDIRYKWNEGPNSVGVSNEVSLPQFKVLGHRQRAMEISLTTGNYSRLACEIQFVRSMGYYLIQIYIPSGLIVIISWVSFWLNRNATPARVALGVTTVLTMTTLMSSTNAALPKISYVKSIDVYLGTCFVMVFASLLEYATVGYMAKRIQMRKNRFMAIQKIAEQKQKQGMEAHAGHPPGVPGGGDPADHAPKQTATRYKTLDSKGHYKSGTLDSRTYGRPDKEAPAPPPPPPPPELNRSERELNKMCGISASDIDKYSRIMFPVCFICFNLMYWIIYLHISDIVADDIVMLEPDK

[2] = target: T2, AmRDL (Apis mellifera, UniProt A0A168SJP2); assay: as above
T2 construct: homomeric
T2 sequence (A0A168SJP2 19-477): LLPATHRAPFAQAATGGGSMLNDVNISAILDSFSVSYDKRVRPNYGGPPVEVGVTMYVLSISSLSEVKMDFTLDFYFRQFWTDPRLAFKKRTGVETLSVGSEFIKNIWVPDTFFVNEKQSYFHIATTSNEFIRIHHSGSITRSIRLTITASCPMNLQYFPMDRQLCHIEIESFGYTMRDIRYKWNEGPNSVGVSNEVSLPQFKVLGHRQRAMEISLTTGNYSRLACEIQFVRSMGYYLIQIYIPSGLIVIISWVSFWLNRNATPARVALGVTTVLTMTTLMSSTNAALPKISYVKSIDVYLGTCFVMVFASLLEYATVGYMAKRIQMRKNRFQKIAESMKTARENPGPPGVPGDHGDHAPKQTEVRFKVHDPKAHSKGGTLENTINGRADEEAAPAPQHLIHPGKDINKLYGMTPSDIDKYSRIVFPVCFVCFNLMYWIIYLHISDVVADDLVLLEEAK

[3] = target: T3, TuRDL (Tetranychus urticae, UniProt E3WEB3); assay: as above
T3 construct: gene Rdl; homomeric
T3 sequence (E3WEB3 18-827): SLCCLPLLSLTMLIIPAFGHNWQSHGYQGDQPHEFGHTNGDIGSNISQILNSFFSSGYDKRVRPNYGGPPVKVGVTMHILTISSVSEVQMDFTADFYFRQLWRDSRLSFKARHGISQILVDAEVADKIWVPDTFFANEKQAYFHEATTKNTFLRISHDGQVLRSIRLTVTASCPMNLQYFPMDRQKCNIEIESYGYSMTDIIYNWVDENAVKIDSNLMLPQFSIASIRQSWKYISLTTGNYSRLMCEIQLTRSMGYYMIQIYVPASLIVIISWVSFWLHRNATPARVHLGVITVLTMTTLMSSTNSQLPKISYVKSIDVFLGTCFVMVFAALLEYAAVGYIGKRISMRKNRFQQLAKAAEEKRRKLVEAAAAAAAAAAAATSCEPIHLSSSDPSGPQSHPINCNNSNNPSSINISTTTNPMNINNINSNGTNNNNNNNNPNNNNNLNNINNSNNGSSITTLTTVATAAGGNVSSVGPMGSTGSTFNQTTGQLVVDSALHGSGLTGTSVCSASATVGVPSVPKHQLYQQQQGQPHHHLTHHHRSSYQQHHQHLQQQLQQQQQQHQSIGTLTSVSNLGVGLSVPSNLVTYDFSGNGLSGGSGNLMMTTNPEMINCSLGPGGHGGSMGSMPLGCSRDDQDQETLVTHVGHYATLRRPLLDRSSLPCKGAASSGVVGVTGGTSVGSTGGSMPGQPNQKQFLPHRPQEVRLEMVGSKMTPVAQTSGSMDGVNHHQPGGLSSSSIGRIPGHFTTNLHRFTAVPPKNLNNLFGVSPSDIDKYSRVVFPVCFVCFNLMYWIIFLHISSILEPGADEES

[4] = target: T4, CsRDL (Chilo suppressalis, UniProt E2IKR3); assay: as above
T4 construct: homomeric channel
T4 sequence (E2IKR3 27-496): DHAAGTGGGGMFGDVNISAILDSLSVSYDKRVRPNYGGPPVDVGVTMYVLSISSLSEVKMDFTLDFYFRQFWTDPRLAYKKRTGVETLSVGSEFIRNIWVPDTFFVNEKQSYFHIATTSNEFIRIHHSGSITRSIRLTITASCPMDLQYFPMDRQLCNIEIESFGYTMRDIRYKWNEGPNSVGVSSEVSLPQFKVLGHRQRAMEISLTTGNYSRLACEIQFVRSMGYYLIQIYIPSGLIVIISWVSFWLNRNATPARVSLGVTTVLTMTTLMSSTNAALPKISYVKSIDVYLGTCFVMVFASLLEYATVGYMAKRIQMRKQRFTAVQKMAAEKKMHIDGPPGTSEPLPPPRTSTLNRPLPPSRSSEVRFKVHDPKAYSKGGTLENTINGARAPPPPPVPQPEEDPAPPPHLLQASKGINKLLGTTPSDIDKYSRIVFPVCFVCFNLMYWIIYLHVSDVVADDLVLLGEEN

[5] = target: T4, CsRDL; assay: two-electrode voltage clamp, inhibition of GABA-induced current in Xenopus oocytes
[6] = target: T2, AmRDL; assay: as above
[7] = target: T5, DmRDL (Drosophila melanogaster, UniProt P25123); assay: as above
T5 construct: gene Rdl; homomeric
T5 sequence (P25123 45-606): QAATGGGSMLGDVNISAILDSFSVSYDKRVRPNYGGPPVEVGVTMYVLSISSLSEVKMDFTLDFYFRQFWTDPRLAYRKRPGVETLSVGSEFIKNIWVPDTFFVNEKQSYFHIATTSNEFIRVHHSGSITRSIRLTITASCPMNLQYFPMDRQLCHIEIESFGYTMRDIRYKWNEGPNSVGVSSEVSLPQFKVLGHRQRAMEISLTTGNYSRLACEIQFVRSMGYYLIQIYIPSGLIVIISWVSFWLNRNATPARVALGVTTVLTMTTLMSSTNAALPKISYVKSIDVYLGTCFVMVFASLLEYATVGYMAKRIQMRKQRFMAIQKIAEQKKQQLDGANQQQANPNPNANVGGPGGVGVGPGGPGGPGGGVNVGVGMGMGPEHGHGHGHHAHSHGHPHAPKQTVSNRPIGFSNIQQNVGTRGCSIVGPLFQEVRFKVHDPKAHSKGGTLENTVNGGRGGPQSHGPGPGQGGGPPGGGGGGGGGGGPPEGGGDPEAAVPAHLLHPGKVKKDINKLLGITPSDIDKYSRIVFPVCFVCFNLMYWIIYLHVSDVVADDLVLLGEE

[8] = target: T6, DmRDL (Drosophila melanogaster, UniProt P25123, G335M); assay: as above
T6 construct: gene Rdl; homomeric
T6 sequence (P25123 45-606 G335M): T5 sequence (P25123 45-606) with G291M

[9] = target: T1, LsRDL; assay: as above
[10] = target: T3, TuRDL; assay: as above

In the case of NCCCC(=O)O [GABA], the EC50 [1] is reported as 31900 nM, the EC50 [2] is reported as 13400 nM and the EC50 [3] is reported as 295000 nM. For the same compound, the EC50 [4] was 18100 nM.

N#Cc1nn(-c2c(Cl)cc(C(F)(F)F)cc2Cl)c(N)c1[S+]([O-])C(F)(F)F (centres unmarked) [fipronil] showed an IC50 [5] of 10 nM.

With Cc1cc(C2=NOC(c3cc(Cl)cc(Cl)c3)(C(F)(F)F)C2)ccc1C(=O)NCC(=O)NCC(F)(F)F (centres unmarked) [fluralaner] the IC50 [6] was 9.38 nM, the IC50 [7] was 6.96 nM and the IC50 [8] was > 10000 nM. The IC50 [9] was 3.27 nM, the IC50 [10] was 2.53 nM and the IC50 [5] was 4.2 nM.
